Laboratory results published in patent US11207310B2 (PRILENIA NEUROTHERAPEUTICS LTD., priority 2016, dated 2021).
Where two headings read alike, the source gives them in different places.

System: patients with HD
From the text: The mPPT quantifies the patient's performance in physical tasks (Brown 2000). It is a standardized 9-item test (standing static balance, chair rise, lift a book and put it on a shelf, put on and remove a jacket, pick up a penny from floor, turn 360 degrees, 50 feet walk, climb one flight of stairs, climb stairs test (flights up and down)), that measures the patient's performance on functional tasks. Both the speed and accuracy at which the patients complete the items are taken into account during scoring. The maximum score of the test is 36, with higher scores indicating better performance. The Multiple Sclerosis Walking Scale (MSWS-12) was adapted to become a generic measure of walking and mobility and renamed the Walk-12.
The secondary efficacy variable and endpoint, the Modified Physical Performance Test (mPPT), quantifies the patient's performance in physical tasks (Brown 2000). It is a standardized 9-item test that measures the patient's performance on functional tasks. Assistive devices are permitted for the tasks that require a standing position (items 6 to 9). Both the speed and accuracy at which the patients complete the items were taken into account during scoring. The maximum score of the test is 36, with higher scores indicating better performance.

[1] = 67.5 mg bid, full analysis set, 26 weeks
[2] = 67.5 mg bid, full analysis set, 52 weeks
[3] = 67.5 mg bid, late stage HD patients with BL TFC<7, 52 weeks
[4] = 90 mg bid, HD1 and HD2 patients, 52 weeks
[5] = 90 mg bid, full analysis set, 26 weeks
[6] = 90 mg bid, full analysis set, 52 weeks
[7] = 90 mg bid, late stage HD patients with BL TFC<7, 52 weeks
[8] = 112.5 mg bid, HD1 and HD2 patients, 52 weeks
[9] = 112.5 mg bid, full analysis set, 26 weeks
[10] = 112.5 mg bid, full analysis set, 52 weeks
[11] = 112.5 mg bid, late stage HD patients with BL TFC<7, 52 weeks

## CCCN1CCC(c2cccc(S(C)(=O)=O)c2)CC1 [pridopidine, 4-[3-(methylsulfonyl)phenyl]-1-propyl-piperidine]
[1]
  Δ to placebo: mPPT Climb One Flight of Stairs scores, change from baseline: 0.11
  Δ to placebo: mPPT Lift a Book and Put it on the Shelf scores, change from baseline: 0.1
  Δ to placebo: mPPT Pick up a Penny from the Floor scores, change from baseline: 0.14
  Δ to placebo: mPPT Put on and Remove a Jacket scores, change from baseline: 0.17
  Δ to placebo: mPPT Turn 360 Degrees scores, change from baseline: −0.06
  Δ to placebo: mPPT standing static balance scores: −0.2
[2]
  Change from baseline in mPPT Climb Stairs (Flights Up and Down) scores, Δ to placebo: 0.04
  Δ to placebo: mPPT 50 Feet Walk scores, change from baseline: 0.15
  Δ to placebo: mPPT Chair Rise scores: −0.1
  Δ to placebo: mPPT Climb One Flight of Stairs scores, change from baseline: 0.13
  Δ to placebo: mPPT Lift a Book and Put it on the Shelf scores, change from baseline: 0.17
  Δ to placebo: mPPT Pick up a Penny from the Floor scores, change from baseline: 0.09
  Δ to placebo: mPPT Put on and Remove a Jacket scores, change from baseline: 0.21
  Δ to placebo: mPPT Turn 360 Degrees scores, change from baseline: −0.1
  Δ to placebo: mPPT standing static balance scores: −0.19
67.5 mg bid, late stage HD patients with BL TFC 0-6, 52 weeks
  Change from baseline in mPPT Climb One Flight of Stairs scores, Δ to placebo: −0.3
[3]
  Change from baseline in mPPT Climb Stairs (Flights Up and Down) scores, Δ to placebo: 0.16
  Δ to placebo: mPPT Climb One Flight of Stairs scores, change from baseline: −0.3
[4]
  Change from baseline in mPPT Climb One Flight of Stairs scores, Δ to placebo: 0.22
  Change from baseline in mPPT Climb Stairs (Flights Up and Down) scores, Δ to placebo: 0.1
90 mg bid, HD1 patients, 52 weeks
  Change from baseline in mPPT Climb One Flight of Stairs scores, Δ to placebo: −0.06
90 mg bid, HD2 patients, 52 weeks
  Change from baseline in mPPT Climb One Flight of Stairs scores, Δ to placebo: 0.28
[5]
  Change from baseline in mPPT Climb Stairs (Flights Up and Down) scores, Δ to placebo: −0.08
  Δ to placebo: mPPT 50 Feet Walk scores, change from baseline: −0.1
  Δ to placebo: mPPT Chair Rise scores: 0.01
  Δ to placebo: mPPT Climb One Flight of Stairs scores, change from baseline: 0.15
  Δ to placebo: mPPT Lift a Book and Put it on the Shelf scores, change from baseline: 0.04
  Δ to placebo: mPPT Pick up a Penny from the Floor scores, change from baseline: 0.1
  Δ to placebo: mPPT Put on and Remove a Jacket scores, change from baseline: −0.01
  Δ to placebo: mPPT Turn 360 Degrees scores, change from baseline: 0.12
  Δ to placebo: mPPT standing static balance scores: −0.1
[6]
  Change from baseline in mPPT Climb Stairs (Flights Up and Down) scores, Δ to placebo: −0.04
  Δ to placebo: mPPT 50 Feet Walk scores, change from baseline: −0.23
  Δ to placebo: mPPT Chair Rise scores: −0.31
  Δ to placebo: mPPT Climb One Flight of Stairs scores, change from baseline: 0.08
  Δ to placebo: mPPT Lift a Book and Put it on the Shelf scores, change from baseline: 0.22
  Δ to placebo: mPPT Pick up a Penny from the Floor scores, change from baseline: 0.14
  Δ to placebo: mPPT Put on and Remove a Jacket scores, change from baseline: 0.08
  Δ to placebo: mPPT Turn 360 Degrees scores, change from baseline: 0.04
  Δ to placebo: mPPT standing static balance scores: −0.14
90 mg bid, late stage HD patients with BL TFC 0-6, 52 weeks
  Change from baseline in mPPT Climb One Flight of Stairs scores, Δ to placebo: −0.26
[7]
  Change from baseline in mPPT Climb Stairs (Flights Up and Down) scores, Δ to placebo: −0.36
  Δ to placebo: mPPT Climb One Flight of Stairs scores, change from baseline: −0.26
[8]
  Change from baseline in mPPT Climb One Flight of Stairs scores, Δ to placebo: 0.23
  Change from baseline in mPPT Climb Stairs (Flights Up and Down) scores, Δ to placebo: 0.07
112.5 mg bid, HD1 patients, 52 weeks
  Change from baseline in mPPT Climb One Flight of Stairs scores, Δ to placebo: 0.18
112.5 mg bid, HD2 patients, 52 weeks
  Change from baseline in mPPT Climb One Flight of Stairs scores, Δ to placebo: 0.23
[9]
  Change from baseline in mPPT Climb Stairs (Flights Up and Down) scores, Δ to placebo: −0.08
  Δ to placebo: mPPT 50 Feet Walk scores, change from baseline: −0.17
  Δ to placebo: mPPT Chair Rise scores: 0.12
  Δ to placebo: mPPT Climb One Flight of Stairs scores, change from baseline: 0.16
  Δ to placebo: mPPT Lift a Book and Put it on the Shelf scores, change from baseline: 0.14
  Δ to placebo: mPPT Pick up a Penny from the Floor scores, change from baseline: 0.07
  Δ to placebo: mPPT Put on and Remove a Jacket scores, change from baseline: −0.03
  Δ to placebo: mPPT Turn 360 Degrees scores, change from baseline: 0.2
  Δ to placebo: mPPT standing static balance scores: 0.05
[10]
  Change from baseline in mPPT Climb Stairs (Flights Up and Down) scores, Δ to placebo: 0.1
  Δ to placebo: mPPT 50 Feet Walk scores, change from baseline: −0.15
  Δ to placebo: mPPT Chair Rise scores: −0.12
  Δ to placebo: mPPT Climb One Flight of Stairs scores, change from baseline: 0.11
  Δ to placebo: mPPT Lift a Book and Put it on the Shelf scores, change from baseline: 0.12
  Δ to placebo: mPPT Pick up a Penny from the Floor scores, change from baseline: 0.07
  Δ to placebo: mPPT Put on and Remove a Jacket scores, change from baseline: −0.18
  Δ to placebo: mPPT Turn 360 Degrees scores, change from baseline: −0.08
  Δ to placebo: mPPT standing static balance scores: −0.12
112.5 mg bid, late stage HD patients with BL TFC 0-6, 52 weeks
  Change from baseline in mPPT Climb One Flight of Stairs scores, Δ to placebo: −0.15
[11]
  Change from baseline in mPPT Climb Stairs (Flights Up and Down) scores, Δ to placebo: 0.31
  Δ to placebo: mPPT Climb One Flight of Stairs scores, change from baseline: −0.15
